The NIST ThermoML archive (doi:10.1021/acs.jced.7b00176)
Numbers after ± are expanded uncertainties.

Experiment: xn = mol fraction of the nth substance listed
Conditions: Liquid, Vibrating tube method

COCCOCCOC [2,5,8-trioxanonane] + CCCCO
Conditions	mass density [kg/m3]
323.26 K, 30000 kPa, x2 = 0.7308	855.36 ± 0.66
323.27 K, 100 kPa, x2 = 0.3116	884.02 ± 0.62
323.27 K, 5000 kPa, x2 = 0.3116	888.39 ± 0.62
323.27 K, 40000 kPa, x2 = 0.7308	862.01 ± 0.68
323.27 K, 60000 kPa, x2 = 0.7308	874.24 ± 0.72
323.27 K, 80000 kPa, x2 = 0.7308	885.1 ± 0.75
323.27 K, 100000 kPa, x2 = 0.7308	894.94 ± 0.77
323.28 K, 1000 kPa, x2 = 0.3116	884.84 ± 0.61
323.28 K, 10000 kPa, x2 = 0.3116	892.57 ± 0.62
323.28 K, 20000 kPa, x2 = 0.3116	900.61 ± 0.63
323.28 K, 30000 kPa, x2 = 0.3116	907.85 ± 0.63
323.28 K, 40000 kPa, x2 = 0.3116	914.76 ± 0.64
323.28 K, 80000 kPa, x2 = 0.3116	938.32 ± 0.66
323.29 K, 100 kPa, x2 = 0.8787	809.04 ± 0.63
323.29 K, 1000 kPa, x2 = 0.8787	809.88 ± 0.61
323.29 K, 5000 kPa, x2 = 0.8787	813.32 ± 0.62
323.29 K, 10000 kPa, x2 = 0.8787	817.49 ± 0.63
323.29 K, 20000 kPa, x2 = 0.8787	825.25 ± 0.65
323.29 K, 30000 kPa, x2 = 0.8787	832.38 ± 0.67
323.29 K, 40000 kPa, x2 = 0.8787	838.96 ± 0.69
323.29 K, 60000 kPa, x2 = 0.3116	927.16 ± 0.66
323.29 K, 60000 kPa, x2 = 0.8787	850.97 ± 0.75
323.29 K, 80000 kPa, x2 = 0.8787	861.63 ± 0.79
323.29 K, 100000 kPa, x2 = 0.3116	948.49 ± 0.66
323.29 K, 100010 kPa, x2 = 0.8787	871.34 ± 0.83
342.49 K, 100 kPa, x2 = 0	894.03 ± 0.61
342.49 K, 1000 kPa, x2 = 0	894.98 ± 0.61
342.49 K, 5000 kPa, x2 = 0	898.96 ± 0.61
342.5 K, 10000 kPa, x2 = 0	903.66 ± 0.62
342.5 K, 20000 kPa, x2 = 0	912.57 ± 0.62
342.51 K, 30000 kPa, x2 = 0	920.68 ± 0.63
342.51 K, 40000 kPa, x2 = 0	928.18 ± 0.63
342.51 K, 60000 kPa, x2 = 0	941.77 ± 0.65
342.51 K, 80000 kPa, x2 = 0	953.82 ± 0.65
342.52 K, 100000 kPa, x2 = 0	964.68 ± 0.64
342.99 K, 100 kPa, x2 = 0.5469	838.63 ± 0.63
343 K, 1000 kPa, x2 = 0.5469	839.58 ± 0.61
343 K, 5000 kPa, x2 = 0.5469	843.51 ± 0.62
343 K, 10000 kPa, x2 = 0.5469	848.2 ± 0.63
343.01 K, 20000 kPa, x2 = 0.5469	856.98 ± 0.64
343.01 K, 30000 kPa, x2 = 0.5469	864.93 ± 0.66
343.01 K, 40000 kPa, x2 = 0.5469	872.29 ± 0.67
343.01 K, 60000 kPa, x2 = 0.5469	885.57 ± 0.71
343.01 K, 80000 kPa, x2 = 0.5469	897.36 ± 0.73
343.02 K, 100 kPa, x2 = 0.7308	814.17 ± 0.62
343.02 K, 100000 kPa, x2 = 0.5469	907.94 ± 0.74
343.03 K, 1000 kPa, x2 = 0.7308	815.11 ± 0.62
343.03 K, 5000 kPa, x2 = 0.7308	819.06 ± 0.62
343.03 K, 80000 kPa, x2 = 0.8787	849.39 ± 0.81
343.04 K, 100 kPa, x2 = 0.3116	864.74 ± 0.63
343.04 K, 100 kPa, x2 = 0.8787	792.02 ± 0.63
343.04 K, 1000 kPa, x2 = 0.3116	865.7 ± 0.61
343.04 K, 1000 kPa, x2 = 0.8787	792.98 ± 0.62
343.04 K, 5000 kPa, x2 = 0.8787	796.88 ± 0.63
343.04 K, 10000 kPa, x2 = 0.7308	823.7 ± 0.63
343.04 K, 10000 kPa, x2 = 0.8787	801.5 ± 0.63
343.04 K, 20000 kPa, x2 = 0.7308	832.39 ± 0.65
343.04 K, 20000 kPa, x2 = 0.8787	810.09 ± 0.66
343.04 K, 30000 kPa, x2 = 0.7308	840.28 ± 0.67
343.04 K, 30000 kPa, x2 = 0.8787	817.86 ± 0.68
343.04 K, 40000 kPa, x2 = 0.7308	847.55 ± 0.69
343.04 K, 40000 kPa, x2 = 0.8787	825.03 ± 0.71
343.04 K, 60000 kPa, x2 = 0.7308	860.64 ± 0.74
343.04 K, 60000 kPa, x2 = 0.8787	837.96 ± 0.77
343.04 K, 80000 kPa, x2 = 0.7308	872.22 ± 0.77
343.04 K, 100000 kPa, x2 = 0.7308	882.62 ± 0.8
343.04 K, 100000 kPa, x2 = 0.8787	859.63 ± 0.86
343.05 K, 5000 kPa, x2 = 0.3116	869.66 ± 0.62
343.05 K, 10000 kPa, x2 = 0.3116	874.4 ± 0.62
343.06 K, 20000 kPa, x2 = 0.3116	883.26 ± 0.63
343.06 K, 30000 kPa, x2 = 0.3116	891.31 ± 0.64
343.06 K, 40000 kPa, x2 = 0.3116	898.79 ± 0.65
343.06 K, 60000 kPa, x2 = 0.3116	912.24 ± 0.68
343.07 K, 80000 kPa, x2 = 0.3116	924.13 ± 0.68
343.08 K, 100000 kPa, x2 = 0.3116	934.89 ± 0.69
362.51 K, 100 kPa, x2 = 0	873.45 ± 0.61
362.51 K, 1000 kPa, x2 = 0	874.46 ± 0.61
362.51 K, 5000 kPa, x2 = 0	879.02 ± 0.62
362.52 K, 10000 kPa, x2 = 0	884.41 ± 0.62
362.52 K, 20000 kPa, x2 = 0	894.33 ± 0.63
362.52 K, 30000 kPa, x2 = 0	903.29 ± 0.64
362.52 K, 40000 kPa, x2 = 0	911.53 ± 0.64
362.53 K, 60000 kPa, x2 = 0	926.3 ± 0.66
362.53 K, 80000 kPa, x2 = 0	939.26 ± 0.67
362.53 K, 100000 kPa, x2 = 0	950.89 ± 0.66
362.67 K, 100 kPa, x2 = 0.5469	819.52 ± 0.64
362.68 K, 1000 kPa, x2 = 0.5469	820.52 ± 0.62
362.68 K, 5000 kPa, x2 = 0.5469	825.03 ± 0.63
362.68 K, 10000 kPa, x2 = 0.5469	830.34 ± 0.63
362.69 K, 100 kPa, x2 = 0.8787	774.25 ± 0.64
362.69 K, 1000 kPa, x2 = 0.8787	775.26 ± 0.62
362.69 K, 5000 kPa, x2 = 0.8787	779.7 ± 0.63
362.69 K, 20000 kPa, x2 = 0.5469	840.09 ± 0.65
362.69 K, 30000 kPa, x2 = 0.5469	848.85 ± 0.66
362.69 K, 40000 kPa, x2 = 0.5469	856.9 ± 0.68
362.69 K, 60000 kPa, x2 = 0.5469	871.26 ± 0.72
362.69 K, 80000 kPa, x2 = 0.5469	883.92 ± 0.75
362.7 K, 5000 kPa, x2 = 0.3116	850.69 ± 0.62
362.7 K, 10000 kPa, x2 = 0.8787	784.88 ± 0.64
362.7 K, 20000 kPa, x2 = 0.8787	794.41 ± 0.66
362.7 K, 30000 kPa, x2 = 0.8787	802.93 ± 0.69
362.7 K, 40000 kPa, x2 = 0.8787	810.75 ± 0.72
362.7 K, 60000 kPa, x2 = 0.8787	824.68 ± 0.79
362.7 K, 100000 kPa, x2 = 0.5469	895.2 ± 0.77
362.71 K, 100 kPa, x2 = 0.3116	845.12 ± 0.64
362.71 K, 100 kPa, x2 = 0.7308	795.72 ± 0.63
362.71 K, 1000 kPa, x2 = 0.3116	846.14 ± 0.61
362.71 K, 10000 kPa, x2 = 0.3116	856.03 ± 0.63
362.71 K, 20000 kPa, x2 = 0.3116	865.91 ± 0.64
362.71 K, 30000 kPa, x2 = 0.3116	874.79 ± 0.65
362.71 K, 80000 kPa, x2 = 0.8787	836.92 ± 0.84
362.71 K, 100000 kPa, x2 = 0.8787	847.79 ± 0.89
362.72 K, 1000 kPa, x2 = 0.7308	796.73 ± 0.62
362.72 K, 5000 kPa, x2 = 0.7308	801.19 ± 0.63
362.72 K, 10000 kPa, x2 = 0.7308	806.44 ± 0.64
362.72 K, 20000 kPa, x2 = 0.7308	816.08 ± 0.65
362.72 K, 30000 kPa, x2 = 0.7308	824.74 ± 0.68
362.72 K, 40000 kPa, x2 = 0.3116	882.96 ± 0.66
362.72 K, 40000 kPa, x2 = 0.7308	832.66 ± 0.7
362.72 K, 60000 kPa, x2 = 0.3116	897.55 ± 0.69
362.72 K, 80000 kPa, x2 = 0.3116	910.38 ± 0.71
362.72 K, 100000 kPa, x2 = 0.3116	921.84 ± 0.71
362.73 K, 60000 kPa, x2 = 0.7308	846.83 ± 0.76
362.73 K, 80000 kPa, x2 = 0.7308	859.23 ± 0.8
362.73 K, 100000 kPa, x2 = 0.7308	870.28 ± 0.83
